Results from paper PMC10266417, “LeishIF3d is a non-canonical cap-binding protein in Leishmania” (Frontiers in Molecular Biosciences, 2023).

Columns and labels:
LeishIF3d = target: T1, LeishIF3d (Leishmania mexicana, UniProt E9B178); experiment: m7GTP-agarose affinity binding of purified His-tagged protein, elution with free m7GTP, anti-His western blot; settings: m7GTP immobilised on agarose; eluted with free m7GTP
T1 construct: gene LMXM_29_3040; full ORF (1596 bp); recombinant His-tagged from E. coli BL21 (pET52, Ni-NTA); mutants C-terminally SBP-tagged, expressed episomally in L. mexicana
T1 sequence (E9B178 1-531): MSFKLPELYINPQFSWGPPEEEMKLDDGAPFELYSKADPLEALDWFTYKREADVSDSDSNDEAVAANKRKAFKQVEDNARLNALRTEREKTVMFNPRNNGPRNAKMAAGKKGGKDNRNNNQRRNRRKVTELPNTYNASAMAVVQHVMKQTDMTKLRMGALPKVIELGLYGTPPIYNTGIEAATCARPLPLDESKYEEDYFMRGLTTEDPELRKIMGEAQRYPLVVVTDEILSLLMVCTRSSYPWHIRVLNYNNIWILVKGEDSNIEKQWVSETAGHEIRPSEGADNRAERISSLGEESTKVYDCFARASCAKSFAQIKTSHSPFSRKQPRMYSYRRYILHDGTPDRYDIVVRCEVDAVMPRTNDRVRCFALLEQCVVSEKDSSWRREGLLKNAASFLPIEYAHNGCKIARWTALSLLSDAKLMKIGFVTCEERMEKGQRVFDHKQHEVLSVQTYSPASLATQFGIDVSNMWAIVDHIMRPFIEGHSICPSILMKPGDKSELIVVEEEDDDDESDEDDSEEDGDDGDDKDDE

LeishIF4E1 = target: T2, LeishIF4E1 (Leishmania mexicana, UniProt E9AZ65); experiment: m7GTP-agarose affinity pull-down, western blot with LeishIF4E1-specific antibodies; type: biochemical; settings: L. mexicana extract; m7GTP immobilised on agarose; 20 mM HEPES pH 7.4, 50 mM NaCl; 100 uM GTP wash, 200 uM m7GTP elution; positive control
T2 construct: gene LMXM_27_1620; endogenous untagged protein in L. mexicana promastigote extract, detected with specific antibodies
T2 sequence (E9AZ65 1-213): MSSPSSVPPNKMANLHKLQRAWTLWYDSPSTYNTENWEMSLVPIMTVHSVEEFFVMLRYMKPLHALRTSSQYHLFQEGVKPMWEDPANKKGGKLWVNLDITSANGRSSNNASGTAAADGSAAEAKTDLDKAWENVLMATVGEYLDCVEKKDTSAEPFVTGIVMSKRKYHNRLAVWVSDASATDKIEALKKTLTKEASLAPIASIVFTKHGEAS

C[n+]1cn([C@@H]2O[C@H](COP(=O)(O)OP(=O)(O)OP(=O)(O)O)[C@@H](O)[C@H]2O)c2nc(N)[nH]c(=O)c21 [m^7GTP]
m7GTP-agarose affinity binding of purified His-tagged protein, elution with free (LeishIF3d): direct binding of recombinant His-tagged LeishIF3d to m^7GTP
m7GTP-agarose affinity pull-down, western blot with LeishIF4E1-specific antibodi (LeishIF4E1): LeishIF3d could bind m^7GTP, as did the positive control of LeishIF4E1
